Where no end group is shown, it is not given here.
Tests used:
r-IFN, IL-4 and IL-10 = settings: disclosed in CN1194986C and CN1216075C; cited from earlier work
TNF-α = settings: pneumonia; recorded in CN101822816A; cited from earlier work
IL-13 [1] = assay: IL-13 level (ELISA) in serum and lung tissue homogenates of allergic asthma mice induced by ovalbumin and aluminium hydroxide; type: in vivo, mouse; settings: for IL-13 level in serums / IL-13 level in lung tissue homogenates: compared to model group
Procedure: (§1) ICR mice, half male and half female, are divided randomly into 9 groups with each group having 10 mice, that is:
(§2) 3) positive medicines group (administer an equal volume of dexamethasone injection solution with the model group, having the dosage of 0.9 μg/kg·d);
(§3) 4) SP peptide high-dosage preventive administration group, 5) SP peptide medium-dosage preventive administration group, and 6) SP peptide low-dosage preventive administration group (administer ovalbumin and aluminium hydroxide, and the SP peptides with a respective dosage of 250 μg/kg·d, 125 μg/kg·d and 62.5 μg/kg·d prepared into an SP peptide solution of a desired concentration with physiological saline).
(§4) 7) SP peptide high-dosage treatment administrative group, 8) SP peptide medium-dosage treatment administration group, and 9) SP peptide low-dosage treatment administration group (administer ovalbumin and aluminium hydroxide, and the SP peptides with a respective dosage of 250 μg/kg·d, 125 μg/kg·d and 62.5 μg/kg·d prepared into an SP peptide solution of a desired concentration with physiological saline).
(§5) All dosage groups of the SP peptide are administered by subcutaneous injection with a 0.1 ml SP peptide solution per 10 g weight of a mouse, the blank control group uses the same amount of physiological saline (0.1 ml physiological saline per 10 g weight of a mouse), and the positive medicines group is administered by intraperitoneal injection with 0.1 ml positive medicines per 10 g weight of a mouse.
(§6) Preparation of sensitized liquid: prepare in a proportion of dissolving 10 ug ovalbumin and 2 mg aluminium hydroxide in 0.5 ml physiological saline, and use it right after being prepared.
(§7) On day 1, day 7 and day 14, the mice of all groups (the model group, the preventive administration groups, the treatment administration groups, and the positive medicines group) apart from the blank control group are injected intraperitoneally with 0.5 ml freshly prepared sensitized liquid. The blank control group is injected intraperitoneally with an equal volume of physiological saline.
(§8) Since day 21 (i.e., starting from week 4), the mice of all groups apart from the blank control group are placed in a 16 L closed container every fourth days, make the mice inhale 1 wt % ovalbumin physiological saline by ultrasonic nebulization, with an inhalation duration of 25 min/d and a nebulization flow rate of 3 ml/min, for twice a week to induce asthma, and the process continues until week 19. The mice in the blank control group undergo nebulization […] with an equal volume of physiological saline.
(§9) Particularly, the preventive administration group (the SP peptide high-dosage preventive administration group, SP peptide medium-dosage preventive administration group, and SP peptide low-dosage preventive administration group) are injected subcutaneously a corresponding dosage of SP peptide at right hindlimb of the mouse, one hour after the first intraperitoneal injection of the sensitized liquid (i.e., from day 1), and are administered every other day for 15 times in total.
(§10) From the same day, the mice in the treatment administration groups (SP high-dosage treatment administration group, SP medium-dosage treatment administration group, and SP low-dosage treatment administration group) are injected subcutaneously with a corresponding dosage of SP peptide at right hindlimb thereof, and are administered every other day for 15 times in total. From the same day, the mice in the positive medicines group are injected intraperitoneally with 0.1 ml dexamethasone injection per 10 g weight of a mouse, and are administered every other day for 15 times in total.
(§11) As for the determination of the experimental result, all mice are killed to obtain blood by picking off their eyeballs 6 hours after the final nebulization inhalation (week 19), and serum is collected and stored at −70° C. until needed. […]

IL-13 [2] = assay: as above; type: in vivo, mouse; settings: compared to model group
[3] = tested on: allergic asthma mouse model; assay: Histopathologic examination and lesion score of lung tissues of allergic asthma mice induced by ovalbumin and aluminium hydroxide; type: in vivo
Procedure: as §1, §2, §5, §6, §7, §8, §9, §10
Lung tissue lesions (including bronchia and perivascular interstitial edema, alveolar wall congestion or emphysema) are marked respectively as 1, 2, 3 and 4 in ascending order of severity, 0 stands for no obvious lesions, and 0.5 for extreme mild lesions. All scores are accumulated, and a mean score (±SD) of each mouse in each group is calculated, and a higher score indicates a more severe level of lesions. Perform a rank-sum test to pathological score results to compare the two samples, and compare with the model group.
2.2 Data Processing: perform data processing to all data, rank-sum test to pathological score, t-test to the other data, and make statistics to analytic results.

IL-4 = IL-4 level (ELISA) in serum and lung tissue homogenates of allergic asthma mice induced by ovalbumin and aluminium hydroxide; type: in vivo, mouse
Procedure: as §1, §2, §3, §4, §5, §6, §7, §8, §9, §10, §11

[4] = all SP peptide high-/medium-/low-dosage preventive and treatment administration groups, compared to the model group (summary statement)
[5] = SP peptide high-dosage preventive administration group, 250 μg/kg·d s.c., FIG. 9
[6] = SP peptide high-dosage treatment administration group, 250 μg/kg·d s.c., FIG. 12
[7] = SP peptide low-dosage preventive administration group, 62.5 μg/kg·d s.c., FIG. 7
[8] = SP peptide low-dosage treatment administration group, 62.5 μg/kg·d s.c., FIG. 10
[9] = SP peptide medium-dosage preventive administration group, 125 μg/kg·d s.c., FIG. 8
[10] = SP peptide medium-dosage treatment administration group, 125 μg/kg·d s.c., FIG. 11
[11] = positive drug group, dexamethasone 0.9 μg/kg·d i.p. every other day x15 from week 15, FIG. 6

## GQTYTSG
r-IFN, IL-4 and IL-10
  level of cytokines r-IFN, IL-4 and IL-10: increased level
TNF-α
  TNF-α level: reducing TNF-α level
IL-13 [1]; SP peptide high-dosage preventive administration group, 250 μg/kg·d s.c. every other day x15 from day 1
  IL-13 level in serums: significantly decreased
IL-13 [1]; SP peptide high-dosage preventive administration group, 250 μg/kg·d s.c.
  IL-13 level in lung tissue homogenates: significantly decreased
IL-13 [1]; SP peptide high-dosage treatment administration group, 250 μg/kg·d s.c.
  IL-13 level in lung tissue homogenates: significantly decreased
IL-13 [1]; SP peptide low-dosage treatment administration group, 62.5 μg/kg·d s.c.
  IL-13 level in lung tissue homogenates: significantly decreased
IL-13 [1]; SP peptide medium-dosage preventive administration group, 125 μg/kg·d s.c. every other day x15 from day 1
  IL-13 level in serums: significantly decreased
IL-13 [1]; SP peptide medium-dosage preventive administration group, 125 μg/kg·d s.c.
  IL-13 level in lung tissue homogenates: significantly decreased
IL-13 [1]; SP peptide medium-dosage treatment administration group, 125 μg/kg·d s.c.
  IL-13 level in lung tissue homogenates: significantly decreased
IL-13 [1]; [4]
  IL-13 level: significantly reduced
IL-13 [2]; SP peptide high-dosage treatment administration group, 250 μg/kg·d s.c. every other day x15 from week 15
  IL-13 level in serums: significantly decreased
IL-13 [2]; SP peptide low-dosage treatment administration group, 62.5 μg/kg·d s.c. every other day x15 from week 15
  IL-13 level in serums: significantly decreased
IL-13 [2]; SP peptide medium-dosage treatment administration group, 125 μg/kg·d s.c. every other day x15 from week 15
  IL-13 level in serums: significantly decreased
[3]; SP peptide high-dosage preventive administration group, 250 μg/kg·d s.c., ** P<0.01, FIG. 3
  overall score of lung tissue lesion level, difference compared to the model group (rank-sum test): highly significant differences
[3]; [5]
  inflammatory cells infiltration (lung tissue section): infiltration with a few inflammatory cells around bronchus
  pulmonary interstitial edema (lung tissue section): mild pulmonary interstitial edema
[3]; SP peptide high-dosage treatment administration group, 250 μg/kg·d s.c., ** P<0.01, FIG. 3
  overall score of lung tissue lesion level, difference compared to the model group (rank-sum test): highly significant differences
[3]; [6]
  inflammatory cells infiltration (lung tissue section): infiltration with a few inflammatory cells
  pulmonary interstitial edema (lung tissue section): mild pulmonary interstitial edema
[3]; SP peptide low-dosage preventive administration group, 62.5 μg/kg·d s.c., * P<0.05, FIG. 3
  overall score of lung tissue lesion level, difference compared to the model group (rank-sum test): significant differences
[3]; [7]
  inflammatory cells infiltration (lung tissue section): infiltration with greater inflammatory cells
  pulmonary interstitial edema (lung tissue section): moderate or severe pulmonary interstitial edema
[3]; SP peptide low-dosage treatment administration group, 62.5 μg/kg·d s.c., * P<0.05, FIG. 3
  overall score of lung tissue lesion level, difference compared to the model group (rank-sum test): significant differences
[3]; [8]
  inflammatory cells infiltration (lung tissue section): infiltration with greater inflammatory cells
  pulmonary interstitial edema (lung tissue section): moderate intrapulmonary small perivascular and peribronchial pulmonary interstitial edema
[3]; SP peptide medium-dosage preventive administration group, 125 μg/kg·d s.c., * P<0.05, FIG. 3
  overall score of lung tissue lesion level, difference compared to the model group (rank-sum test): significant differences
[3]; [9]
  inflammatory cells infiltration (lung tissue section): infiltration with a few inflammatory cells
  pulmonary interstitial edema (lung tissue section): moderate or mild pulmonary interstitial edema
[3]; SP peptide medium-dosage treatment administration group, 125 μg/kg·d s.c., ** P<0.01, FIG. 3
  overall score of lung tissue lesion level, difference compared to the model group (rank-sum test): highly significant differences
[3]; [10]
  alveolar wall congestion or emphysema (lung tissue section): congestion around alveolar walls, alveoli are in an emphysematous state
  inflammatory cells infiltration (lung tissue section): infiltration with many inflammatory cells
  pulmonary interstitial edema (lung tissue section): mild intrapulmonary small perivascular and peribronchial pulmonary interstitial edema
[3]; after administering SP peptide for prevention or treatment, histopathologic test, FIG. 3
  bronchia and perivascular interstitial edema, edematous inflammatory cells infiltration, alveolar wall congestion or emphysema: significantly reduced
[3]; [4]
  lung tissue lesion level: significantly alleviated
[3]; five mice drawn from each group, preventive administration groups (SP peptide 250, 125, 62.5 μg/kg·d s.c. from day 1, x15)
  asthma modelling by pathological check on day 1 of week 15: all asthma groups apart from the preventive administration groups are successfully modeled
IL-4; SP peptide high-dosage preventive administration group, 250 μg/kg·d s.c., compared to model group
  IL-4 level: significantly decreased
IL-4; SP peptide high-dosage treatment administration group, 250 μg/kg·d s.c., compared to model group
  IL-4 level: significantly decreased
IL-4; SP peptide low-dosage treatment administration group, 62.5 μg/kg·d s.c., compared to model group
  IL-4 level: significantly decreased
IL-4; SP peptide medium-dosage preventive administration group, 125 μg/kg·d s.c., compared to model group
  IL-4 level: significantly decreased
IL-4; SP peptide medium-dosage treatment administration group, 125 μg/kg·d s.c., compared to model group
  IL-4 level: significantly decreased
IL-4; [4]
  IL-4 level: significantly reduced

## C[C@@H]1C[C@H]2[C@@H]3CCC4=CC(=O)C=C[C@]4(C)[C@@]3(F)[C@@H](O)C[C@]2(C)[C@@]1(O)C(=O)CO [positive drug, dexamethasone, reference compound]
[3]; [11]
  inflammatory cells infiltration (lung tissue section): infiltration with a few inflammatory cells
  pulmonary interstitial edema (lung tissue section): mild pulmonary interstitial edema
